# Values quoted from earlier work as cited in patent publication US7378418B2, “Azabicyclic heterocycles as cannabinoid receptor modulators” (Bristol-Myers Squibb Company, priority 2003, dated 2008).
# Columns and labels:
# [1] = chronic administration for two weeks (Hildebrandt et al. 2003)
# human subjects = conditions: 16 week trial period, published Phase IIb data
Structure (SMILES),body weight [1],body weight (human subjects)
Cc1c(C(=O)NN2CCCCC2)nn(-c2ccc(Cl)cc2Cl)c1-c1ccc(I)cc1 [AM-251],substantial body weight reduction,
Cc1c(C(=O)NN2CCCCC2)nn(-c2ccc(Cl)cc2Cl)c1-c1ccc(Cl)cc1 [SR-141716],,dose-dependently reduced body weight
